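Grown in 96-well plates, cells were treated for 48 hours with each compound at five concentrations. Insufficient inhibition: endpoint recorded as highest concentration tested. GI50 marks 50% less growth. At the TGI there is no net growth.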
Assays:
Experiment in all cases: NCI anticancer screen, dose series, 48 h
IGROV1 ovarian = system: IGROV1 ovarian
SNB-19 CNS = system: SNB-19 CNS
NCI-H23 lung = system: NCI-H23 lung
SNB-75 CNS = system: SNB-75 CNS
SK-OV-3 ovarian = system: SK-OV-3 ovarian
EKVX NSCLC = system: EKVX NSCLC
DU-145 prostate = system: DU-145 prostate
PC-3 prostate = system: PC-3 prostate
MDA-MB-435 = system: MDA-MB-435
A498 renal = system: A498 renal

SMILES	TGI (IGROV1 ovarian)	TGI (SNB-19 CNS)	TGI (NCI-H23 lung)	TGI (SNB-75 CNS)	TGI (SK-OV-3 ovarian)	TGI (EKVX NSCLC)	GI50 (IGROV1 ovarian)	GI50 (DU-145 prostate)	TGI (DU-145 prostate)	GI50 (SNB-19 CNS)	GI50 (PC-3 prostate)	TGI (PC-3 prostate)	GI50 (MDA-MB-435)	TGI (MDA-MB-435)	GI50 (A498 renal)	TGI (A498 renal)	GI50 (NCI-H23 lung)	GI50 (SK-OV-3 ovarian)	GI50 (EKVX NSCLC)	GI50 (SNB-75 CNS)
C=CCC1C(=O)CC2(C)C(CC=C)C(=O)CC12C (stereo not given)	> 100 µM	> 100 µM	> 100 µM	> 100 µM	> 100 µM	> 100 µM														
Cc1ccc(/C(=C/C=C(C#N)C#N)Sc2nc3ccccc3s2)cc1	29.8 µM	34.1 µM	11.6 µM		30 µM	39.4 µM	4.78 µM	4.18 µM	14.5 µM	14.8 µM	2.25 µM	6.52 µM	3.54 µM	13.1 µM	20.9 µM	35.9 µM	3.36 µM	14.1 µM	17.7 µM	
COc1ccc(NC(=O)c2cccc(C3CCc4c(cc(OC)c(OC)c4OC)O3)c2)cc1 (stereo not given)	> 100 µM	> 100 µM	> 100 µM		> 100 µM	> 100 µM	4.96 µM	2.93 µM	> 100 µM	4.16 µM	1.57 µM	> 100 µM	0.528 µM	9.92 µM	1.37 µM	5.7 µM	4.56 µM	3.54 µM	3.28 µM	
CCCCNCCCCCNc1cc(OC)cc2cccnc12	29.1 µM	31.5 µM	31.7 µM		35.9 µM	99.2 µM	14.6 µM	23.1 µM	56.3 µM	13.8 µM	15.2 µM	34.7 µM	19.8 µM	41.4 µM	16.2 µM	38 µM	15.9 µM	18.4 µM	29.6 µM	
CC[P+]1(c2ccccc2)CCCCC1	> 100 µM	> 100 µM	> 100 µM	> 100 µM	> 100 µM	> 100 µM														
CCOP(=O)(OCC)C(NC(c1ccccc1)c1ccccc1)c1ccc(C(C)C)cc1 (stereo not given)		> 100 µM	20.7 µM	25.9 µM	34.7 µM	20.4 µM		8.41 µM	25.5 µM	26.6 µM	2.9 µM	13.3 µM	3.71 µM	11.6 µM			6.38 µM	13.2 µM	6.01 µM	5.28 µM
NCCCNc1nc2ccccc2c2c(=O)c3cc(F)cc(Cl)c3sc12	3.12 µM	3.33 µM	3.07 µM	2.96 µM		3.07 µM	1.58 µM	1.72 µM	3.17 µM	1.77 µM	1.76 µM	3.35 µM	1.66 µM	3.04 µM	2.11 µM	7.04 µM	1.56 µM		1.56 µM	1.54 µM
COc1cc(NCCC2CCCCN2)c2ncccc2c1OC (stereo not given)		42.3 µM	31.3 µM	19.5 µM	38.9 µM	48.6 µM		13.1 µM	26.9 µM	18.7 µM	18.1 µM	72 µM			22.6 µM	41.8 µM	7.09 µM	20.3 µM	15.6 µM	3.85 µM
O=C1CCc2ccc(O)c(c2)Oc2ccc(cc2)[C@@H]2O[C@@H]2CO1	50.5 µM	> 100 µM	> 100 µM	> 100 µM	> 100 µM	> 100 µM										70.7 µM				
CCc1cccc(NC(=O)c2cc(/C=C/c3ccccc3)[nH]c(=S)n2)c1	> 100 µM	> 100 µM	> 100 µM	> 100 µM	> 100 µM	> 100 µM										> 100 µM				
CSc1cc(C(C)(C)C)ccc1C(O)c1ccc(C(C)(C)C)cc1SC	26.2 µM	34.3 µM	29.8 µM	32.3 µM	32.2 µM	21.2 µM										26.7 µM				
CCOC(=O)c1cc2c(n1Cc1cc(OC)cc(OC)c1)-c1oncc1CC2	> 100 µM	> 100 µM	> 100 µM	> 100 µM	> 100 µM	> 100 µM	0.226 µM	0.216 µM	25.7 µM	0.544 µM	0.383 µM	> 100 µM			0.0532 µM	0.779 µM	0.307 µM	0.309 µM	0.32 µM	0.111 µM
Nc1nc(N)c(-c2ccc(Cl)c(Cl)c2)c(CP(Cl)(Cl)(Cl)Br)n1	61.8 µM	> 100 µM	> 100 µM	> 100 µM	> 100 µM		8.92 µM	9.33 µM	> 100 µM	31.9 µM	5.31 µM	> 100 µM	4.4 µM	84.3 µM	22.9 µM	> 100 µM	19.6 µM	86.7 µM		39.7 µM
O=C(CC1Sc2ccccc2NC1=O)NNc1ccc(F)cc1 (stereo not given)	> 100 µM		> 100 µM	> 100 µM	> 100 µM	> 100 µM	40.5 µM	57 µM	> 100 µM		64.1 µM	> 100 µM	4.34 µM	> 100 µM	83.5 µM	> 100 µM	> 100 µM	> 100 µM	> 100 µM	14.9 µM
CCc1ccccc1NC(=O)C(=O)C(C#N)c1c(Cl)cccc1Cl (stereo not given)	> 100 µM	> 100 µM	> 100 µM	> 100 µM	> 100 µM	> 100 µM														
O=C(O)CCSC(=O)Nc1ccccc1	> 100 µM	> 100 µM	> 100 µM			> 100 µM										> 100 µM				
CCOC(=O)c1ccc(NC(=O)c2cccc(NC3=C(Cl)C(=O)N(Cc4ccccc4)C3=O)c2)cc1	> 100 µM	> 100 µM		> 100 µM	> 100 µM	> 100 µM	65 µM	> 100 µM	> 100 µM	> 100 µM	> 100 µM	> 100 µM	> 100 µM	> 100 µM	> 100 µM	> 100 µM		> 100 µM	> 100 µM	> 100 µM

— PubChem BioAssay (NCI)
